# Results from US12702643B2, “Ion-exchange composition with water-soluble mucoadhesive polymers” (Fertin Pharma A/S, priority 2019, dated 2026).
# Conditions: increase of nicotine concentration from 100 microgram/mL to 14,000 microgram/mL
smiles,measurement,value
CN1CCCC1c1cccnc1 (stereo not shown) [nicotine],Permeability of nicotine across the buccal mucosa,decrease of about a factor of two
